According to patent US11684616B2, “Azalactam compounds as HPK1 inhibitors” (PFIZER INC., priority 2020, dated 2023):

How the values were obtained:
[1] = tested on: Phospho-SLP-76 (Ser376) in Jurkat cells; assay: Phospho-SLP-76 (Ser376) HTRF assay in anti-CD3 stimulated Jurkat cells; format: cell-based; settings: Homo sapiens, Jurkat, 30 min pre-treatment, anti-CD3 stimulation 15 min, read-out: pSLP76 IC50
Procedure, shortened: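 Jurkat cells pre-treated 30 min with compound (11-point 3-fold series, final 10 μM to 0.1 nM, 0.1% DMSO), then stimulated 15 min at 37° C with 200 μg/mL F(ab)2-complexed anti-CD3 (UCTH1). Lysate phospho-SLP-76 read by HTRF sandwich after overnight RT incubation; IC50 from four-parameter fit.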

[2] = molecular target: Human recombinant full-length GST-tagged RPS6KA2 (RSK3) (Homo sapiens (Human), UniProt Q15349); assay: Biochemical selectivity kinase assay (Z'-LYTE FRET), RSK3; settings: for IC50: 10 μM ATP (~Km); for RSK3 IC50/HPK1 Ki: ratio of the RSK3 IC50 to the HPK1 Ki
From the text: (§1) Biochemical Selectivity Kinase Assay.
(§2) The dose response curve was curve fit to model number 205 (sigmoidal dose-response model). A ratio of the PRKD2 IC50 to the HPK1 Ki and a ratio of the RSK3 IC50 to the HPK1 Ki, is provided in the respective columns adjacent to the columns for PRKD2 IC50 and RSK3 IC50.

[3] = molecular target: human full-length autophosphorylated recombinant HPK1 (Homo sapiens (Human), UniProt Q92918); assay: HPK1 biochemical enzyme assay (chelation-enhanced fluorescence, CHEF); settings: 0.5 nM HPK1, 45 μM ATP, Morrison fit
Procedure, shortened: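 Autophosphorylated full-length human HPK1 from Sf21 cells, His-tag removed by TEV, residual N-terminal Gly-Ser. Activity measured with a C-Sox fluorescent peptide substrate (CHEF); initial velocities followed at λex 360/λem 500 nm, 30 °C for 15 min.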

[4] = molecular target: Human recombinant full-length GST-tagged PRKD2 (PKD2) (Homo sapiens (Human), UniProt Q9BZL6); assay: Biochemical selectivity kinase assay (Z'-LYTE FRET), PRKD2; settings: for IC50: 25 μM ATP (~Km); for PRKD2 IC50/HPK1 Ki: ratio of the PRKD2 IC50 to the HPK1 Ki
From the text: as §1, §2

Sequence of human full-length autophosphorylated recombinant HPK1 (Q92918 other isoform, or with tags, fused parts or gaps): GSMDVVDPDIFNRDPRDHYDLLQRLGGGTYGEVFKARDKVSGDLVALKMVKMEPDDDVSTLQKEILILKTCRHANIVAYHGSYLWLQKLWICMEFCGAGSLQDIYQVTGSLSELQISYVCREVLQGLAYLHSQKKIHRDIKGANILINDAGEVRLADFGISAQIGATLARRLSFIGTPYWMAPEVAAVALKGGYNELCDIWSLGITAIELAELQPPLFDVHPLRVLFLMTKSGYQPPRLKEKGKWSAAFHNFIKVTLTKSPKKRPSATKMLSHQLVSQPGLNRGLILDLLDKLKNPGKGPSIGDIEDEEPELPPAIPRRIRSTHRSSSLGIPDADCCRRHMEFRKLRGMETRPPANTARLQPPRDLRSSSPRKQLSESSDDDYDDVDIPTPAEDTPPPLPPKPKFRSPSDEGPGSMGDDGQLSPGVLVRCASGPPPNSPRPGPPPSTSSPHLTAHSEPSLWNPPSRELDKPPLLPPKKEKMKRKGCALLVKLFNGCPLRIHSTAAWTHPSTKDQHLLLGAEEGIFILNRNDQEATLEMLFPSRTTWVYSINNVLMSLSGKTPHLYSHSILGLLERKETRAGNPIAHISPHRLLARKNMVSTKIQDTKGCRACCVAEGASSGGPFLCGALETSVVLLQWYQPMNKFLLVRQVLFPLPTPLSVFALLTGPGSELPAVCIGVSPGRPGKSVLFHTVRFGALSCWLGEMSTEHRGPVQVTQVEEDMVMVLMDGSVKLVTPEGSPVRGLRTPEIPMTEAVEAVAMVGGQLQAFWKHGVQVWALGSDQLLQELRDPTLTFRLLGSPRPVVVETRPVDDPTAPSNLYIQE
Sequence of Human recombinant full-length GST-tagged RPS6KA2 (RSK3) (Q15349 whole entry): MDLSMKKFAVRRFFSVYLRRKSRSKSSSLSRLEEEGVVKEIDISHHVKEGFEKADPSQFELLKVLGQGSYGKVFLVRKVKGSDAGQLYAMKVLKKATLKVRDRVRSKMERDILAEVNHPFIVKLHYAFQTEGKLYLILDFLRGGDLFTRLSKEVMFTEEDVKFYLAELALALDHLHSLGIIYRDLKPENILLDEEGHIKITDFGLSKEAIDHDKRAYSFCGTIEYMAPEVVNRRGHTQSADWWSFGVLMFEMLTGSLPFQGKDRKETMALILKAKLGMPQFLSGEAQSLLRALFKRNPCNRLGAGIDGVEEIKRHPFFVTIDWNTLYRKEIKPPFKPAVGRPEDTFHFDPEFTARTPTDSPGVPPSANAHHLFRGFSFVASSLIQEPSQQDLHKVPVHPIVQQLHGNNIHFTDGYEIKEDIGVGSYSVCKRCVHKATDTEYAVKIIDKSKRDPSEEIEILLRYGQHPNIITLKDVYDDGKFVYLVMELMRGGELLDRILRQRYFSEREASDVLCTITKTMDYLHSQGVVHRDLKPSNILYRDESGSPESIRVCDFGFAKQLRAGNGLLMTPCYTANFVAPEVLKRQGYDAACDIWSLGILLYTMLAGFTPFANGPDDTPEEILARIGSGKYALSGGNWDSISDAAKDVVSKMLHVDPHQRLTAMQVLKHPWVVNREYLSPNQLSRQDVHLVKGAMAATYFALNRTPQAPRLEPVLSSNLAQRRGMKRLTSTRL
Sequence of Human recombinant full-length GST-tagged PRKD2 (PKD2) (Q9BZL6 whole entry): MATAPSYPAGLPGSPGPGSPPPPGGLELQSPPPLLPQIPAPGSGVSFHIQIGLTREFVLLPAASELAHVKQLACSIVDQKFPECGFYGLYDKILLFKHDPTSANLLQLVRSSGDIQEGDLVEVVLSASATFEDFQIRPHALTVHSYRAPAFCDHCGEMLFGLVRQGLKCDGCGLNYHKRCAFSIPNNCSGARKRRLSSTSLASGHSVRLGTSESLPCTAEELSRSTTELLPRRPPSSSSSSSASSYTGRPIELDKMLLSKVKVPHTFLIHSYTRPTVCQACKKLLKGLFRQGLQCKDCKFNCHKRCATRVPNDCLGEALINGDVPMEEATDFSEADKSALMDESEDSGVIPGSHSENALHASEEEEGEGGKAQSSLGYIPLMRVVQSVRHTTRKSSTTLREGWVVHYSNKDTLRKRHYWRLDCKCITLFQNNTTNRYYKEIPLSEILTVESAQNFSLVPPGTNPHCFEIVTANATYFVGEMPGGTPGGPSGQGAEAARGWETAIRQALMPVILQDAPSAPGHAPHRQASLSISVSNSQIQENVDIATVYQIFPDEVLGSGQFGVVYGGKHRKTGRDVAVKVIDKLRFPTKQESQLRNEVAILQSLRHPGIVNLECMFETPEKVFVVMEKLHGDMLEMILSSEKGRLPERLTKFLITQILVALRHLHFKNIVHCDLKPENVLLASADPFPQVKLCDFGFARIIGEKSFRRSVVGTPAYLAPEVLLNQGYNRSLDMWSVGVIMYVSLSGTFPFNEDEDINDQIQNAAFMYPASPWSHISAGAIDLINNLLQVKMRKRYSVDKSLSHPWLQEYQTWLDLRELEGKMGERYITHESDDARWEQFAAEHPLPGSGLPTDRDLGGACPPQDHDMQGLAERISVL

Row | IC50 [1] [nM] | IC50 [2] [nM] | RSK3 IC50/HPK1 Ki [2] | Ki [3] [nM] | IC50 [4] [nM] | PRKD2 IC50/HPK1 Ki [4] | Compound
1 | 16 | 10.1 | >200 | < 0.05 | 7.97 | >160 | CC[C@H]1CCc2nnc(-c3cccc(N4Cc5c(cc(N6CCC[C@H]6C)nc5CNC)C4=O)n3)n21 [Example 200, 2-{6-[(5S)-5-ethyl-6,7-dihydro-5H-pyrrolo[2,1-c][1,2,4]triazol-3-yl]pyridin-2-yl}-4-[(methylamino)methyl]-6-[(2R)-2-methylpyrrolidin-1-yl]-2,3-dihydro-1H-pyrrolo[3,4-c]pyridin-1-one]
2 | 37 | 6.73 | >134 | < 0.05 | 5.43 | >108 | CC[C@H]1CCc2nnc(-c3cccc(N4Cc5c(cc(N(C)C(C)C)nc5CNC)C4=O)n3)n21 [Example 201, 2-{6-[(5S)-5-ethyl-6,7-dihydro-5H-pyrrolo[2,1-c][1,2,4]triazol-3-yl]pyridin-2-yl}-4-[(methylamino)methyl]-6-[methyl(propan-2-yl)amino]-2,3-dihydro-1H-pyrrolo[3,4-c]pyridin-1-one]
3 | 25 | 40.1 | 667 | 0.06 | 6.54 | 108 | CNCc1nc(N2CCC[C@H]2C)cc2c1CN(c1cccc(-c3nnc4n3[C@@H](CF)CC4)n1)C2=O [Example 202, 2-{6-[(5R)-5-(fluoromethyl)-6,7-dihydro-5H-pyrrolo[2,1-c][1,2,4]triazol-3-yl]pyridin-2-yl}-4-[(methylamino)methyl]-6-[(2R)-2-methylpyrrolidin-1-yl]-2,3-dihydro-1H-pyrrolo[3,4-c]pyridin-1-one]
